Reference: patent US20240109881A1, “Heteroaryl Compounds as Ligand Directed Degraders of IRAK4” (Bristol-Myers Squibb Company, priority 2022, published 2024)

Target: T1, IRAK4 (Homo sapiens, UniProt Q9NWZ3)
T1 construct: endogenous in cells; host or cells: THP-1 cells
T1 sequence (Q9NWZ3 1-460): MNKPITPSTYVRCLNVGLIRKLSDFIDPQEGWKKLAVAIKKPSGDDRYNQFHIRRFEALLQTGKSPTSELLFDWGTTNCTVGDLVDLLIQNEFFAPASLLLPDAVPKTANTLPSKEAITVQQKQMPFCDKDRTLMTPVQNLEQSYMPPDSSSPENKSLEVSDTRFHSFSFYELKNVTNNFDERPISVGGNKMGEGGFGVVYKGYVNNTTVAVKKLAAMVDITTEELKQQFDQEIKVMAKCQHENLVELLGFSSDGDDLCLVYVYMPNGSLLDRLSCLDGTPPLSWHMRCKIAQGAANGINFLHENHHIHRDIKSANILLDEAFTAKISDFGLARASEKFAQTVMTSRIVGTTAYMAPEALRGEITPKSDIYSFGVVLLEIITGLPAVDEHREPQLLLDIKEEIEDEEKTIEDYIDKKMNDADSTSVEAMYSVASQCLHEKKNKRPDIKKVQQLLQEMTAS
Test: LVL THP1 HTRF (THP1 Homogeneous Time Resolved Fluorescence)
Type: cell-based
Details: THP1 cells, 18 h incubation with compound; for DC50: read-out: LVL THP1 HTRF EC50
Experimental: Cell culture media was prepared in a tissue culture hood in a sterile environment by adding 10% FBS and 1% Penicillin Streptomycin to 500 mL no phenol red RPMI 1640 media. The media was filtered through a Nalgene Bottle Top Filter and stored at 4° C.
For Homogenous Time Resolved Fluorescence (HTRF) assays, a Cisbio HTRF kit was used, which included: Lysis Buffer #1 4×, Blocking Reagent #3 100×, 20× Antibody 1 (Anti-IRAK4 d2), 20× Antibody 2 (Anti-IRAK4 k), and Detection Buffer.
The THP1 plates were prepared by the following method. For each dosing plate, a duplicate for CTG assay was prepared. Two THP-1 T-175 flasks could be used to plate one 384 well plate. The cells were collected from two T-175 flasks into 200 mL centrifuge tubes and spun down at 1200 rpm for 10 min. The supernatant was removed completely and cells were resuspended in 7.5 mL cell culture media. To 5 μL of the cell suspension was added 25 μL of media and 30 μL of Trypan Blue stain. The cells were counted using countess (automated cell counter, Thermo Fisher Scientific) twice and the viability and live cell count was recorded. The actual cell count was […] the live cell count. Based on the count, a cell suspension was prepared in colorless RPMI media for a final concentration of 7.5e6 cells/mL. Using Standard cassette multidrop combi, 20 μL of the 7.5e6 cells/mL cell stock was added to entire 384 well plate but for top half of column 1 (negative control) The multidrop combi was always primed to achieve a steady flow and washed after use with 20 mL de-ionized water followed by 20 mL alcohol. The cells were incubated in 5% CO2 incubator at 37° C.
Dosing was conducted using the following method. To dose assay plates and CTG plate was added 20 nL of compounds in DMSO using Echo (Beckman Coulter), and the plates were incubated at 37° C. for 18 h. The compound plates were spun at 1200 rpm for 1 min before dosing. The compound plate was sealed and properly stored during incubation.
After dosing, an HTRF assay was conducted using the following method. The treatment plates (IRAK4_HTRF) were centrifuged at 600 g for 10 min. Using CyBio Felix, Automated liquid handler (Analytikjena), 13 μL cell culture media was removed. To all columns, 7.5 μL lysis buffer was added, and an additional 7.5 μL of lysis buffer was added to column 1(top half, negative control). The plate was incubated on a shaker at room temperature for 2 h. The plate was spun down at 600 g for 5 min. Custom 20×IRAK4 Antibody obtained from CISBIO Anti-IRAK4-d2 (acceptor Ab) and Anti-IRAK4-K (donor Ab) were diluted to 1× antibody mix Using a multichannel repeater, 4 μL of 1× antibody mix was added to each wellThe plate was spun down at 600 g for 5 min and incubated in the dark at room temperature for 18 h The next day (after 18 hrs), HTRF assay plate was spun down at 600 g for 5 min and read at 665/615 nm using a Envision plate reader.

LVL THP1 HTRF YMIN [%] | DC50 [nM] | SMILES
1.8 | 7 | C[C@H](C#N)Nc1cc(-n2ncc3cc(C#N)cnc32)ncc1-n1cc([C@H]2CC[C@H](CCN3CCN(c4ccc(C5(C)CCC(=O)NC5=O)cc4)CC3)CC2)nn1 (single isomer, unassigned) [P-204]
2.6 | 29 | C[C@H](C#N)Nc1cc(-n2ncc3cc(C#N)cnc32)ncc1-n1cc(C2CCC(CCN3CCN(c4ccc(C5CCC(=O)NC5=O)cc4)C4COCC43)CC2)nn1 (single isomer, unassigned) [P-235]
2.8 | 7 | C[C@H](C#N)Nc1cc(-n2ncc3cc(C#N)cnc32)ncc1-n1cc(C2CCC(CCN3CCN(c4ccc(C5CCC(=O)NC5=O)cc4)C4COCC43)CC2)nn1 (single isomer, unassigned) [P-237]
1.9 | 2.3 | C[C@H](C#N)Nc1cc(-n2ncc3cc(C#N)c(N)nc32)ncc1C(=O)N[C@H]1CC[C@H](CCN2CCN(c3ccc([C@@]4(C)CCC(=O)NC4=O)cn3)[C@@H](C)C2)CC1 (single isomer, unassigned) [P-249]
1.7 | 5.4 | C[C@H](C#N)Nc1cc(-n2ncc3cc(C#N)c(N)nc32)ncc1-n1cc([C@H]2CC[C@H](CCN3[C@@H](C)CN(c4ccc([C@@]5(C)CCC(=O)NC5=O)cn4)C[C@@H]3C)CC2)nn1 (single isomer, unassigned) [P-252]
9.4 | 48.7 | C[C@H](C#N)Nc1cc(-n2ncc3cc(C#N)c(N)nc32)ncc1-n1cc([C@H]2CC[C@H](CCN3[C@H](C)CN(c4ccc([C@@]5(C)CCC(=O)NC5=O)cn4)C[C@H]3C)CC2)nn1 (single isomer, unassigned) [P-253]
91.0 | 21.7 | C[C@H](C#N)Nc1cc(-n2ncc3cc(C#N)c(N)nc32)ncc1-n1cc([C@H]2CC[C@H](CCN3[C@@H](C)CN(c4ccc([C@@]5(C)CCC(=O)NC5=O)cn4)C[C@@H]3C)CC2)nn1 (single isomer, unassigned) [P-254]
90.4 | 12.4 | C[C@H](C#N)Nc1cc(-n2ncc3cc(C#N)c(N)nc32)ncc1-n1cc([C@H]2CC[C@H](CCN3[C@H](C)CN(c4ccc([C@@]5(C)CCC(=O)NC5=O)cn4)C[C@H]3C)CC2)nn1 (single isomer, unassigned) [P-255]
34.7 | 92.8 | C[C@H](C#N)Nc1cc(-n2ncc3cc(C#N)c(N)nc32)ncc1-n1cc([C@H]2CC[C@H](CCN3CCN(c4ccc([C@@]5(C)CCC(=O)NC5=O)nc4)[C@@H](C)C3)CC2)nn1 (single isomer, unassigned) [P-257]
2.0 | 6.9 | C[C@H](C#N)Nc1cc(-n2ncc3cc(C#N)c(N)nc32)ncc1-n1cc([C@H]2CC[C@H](CCN3CCN(c4ccc([C@@]5(C)CCC(=O)NC5=O)cn4)[C@@H](C)C3)CC2)nn1 (single isomer, unassigned) [P-258]
89.5 | 26.1 | C[C@H](C#N)Nc1cc(-n2ncc3cc(C#N)c(N)nc32)ncc1-n1cc([C@H]2CC[C@H](CCN3CCN(c4ccc([C@@]5(C)CCC(=O)NC5=O)cn4)[C@@H](C)C3)CC2)nn1 (single isomer, unassigned) [P-259]
8.7 | 17.1 | C[C@H](C#N)Nc1cc(-n2ncc3cc(C#N)c(N)nc32)ncc1-n1cc([C@H]2CC[C@H](CCN3CCN(c4ccc([C@@]5(C)CCC(=O)NC5=O)cn4)[C@H](C)C3)CC2)nn1 (single isomer, unassigned) [P-262]
9.0 | 25.7 | C[C@H](C#N)Nc1cc(-n2ncc3cc(C#N)c(N)nc32)ncc1-n1cc([C@H]2CC[C@H](CCN3CCN(c4cnc([C@@]5(C)CCC(=O)NC5=O)nc4)CC3)CC2)nn1 (single isomer, unassigned) [P-263]
94.6 | 7.2 | C[C@H](C#N)Nc1cc(-n2ncc3cc(C#N)c(N)nc32)ncc1-n1cc([C@H]2CC[C@H](CCN3CCN(c4cnc([C@@]5(C)CCC(=O)NC5=O)nc4)CC3)CC2)nn1 (single isomer, unassigned) [P-264]
93.2 | 1000 | C[C@H](C#N)Nc1cc(-n2ncc3cc(C#N)c(N)nc32)ncc1-n1cc([C@H]2CC[C@H](CCN3CCN(c4ccc([C@@]5(C)CCC(=O)NC5=O)cn4)CC3)CC2)nn1 (single isomer, unassigned) [P-265]
54.7 | 94.7 | C[C@H](C#N)Nc1cc(-n2ncc3cc(C#N)c(N)nc32)ncc1-n1cc([C@H]2CC[C@H](CCN3CCN(c4cnc([C@@]5(C)CCC(=O)NC5=O)cn4)CC3)CC2)nn1 (single isomer, unassigned) [P-267]
−0.2 | 2.1 | C[C@H](C#N)Nc1cc(-n2ncc3cc(C#N)c(N)nc32)ncc1-n1cc([C@H]2CC[C@H](CCN3CCN(c4cnc([C@@]5(C)CCC(=O)NC5=O)cn4)CC3)CC2)nn1 (single isomer, unassigned) [P-268]
6.0 | 11.4 | C[C@H](C#N)Nc1cc(-n2ncc3cc(C#N)cnc32)ncc1C(=O)N[C@H]1CC[C@H](CCN2CCN(c3ccc([C@@]4(C)CCC(=O)NC4=O)cn3)[C@@H](C)C2)CC1 (single isomer, unassigned) [P-276]
47.7 | 107 | C[C@H](C#N)Nc1cc(-n2ncc3cc(C#N)cnc32)ncc1-n1cc([C@H]2CC[C@](O)(CCN3CCN(c4ccc([C@@]5(C)CCC(=O)NC5=O)nc4)CC3)CC2)nn1 (single isomer, unassigned) [P-280]
24.0 | 106 | C[C@H](C#N)Nc1cc(-n2ncc3cc(C#N)cnc32)ncc1-n1cc([C@H]2CC[C@H](CCN3C[C@@H]4CN(c5ccc([C@@]6(C)CCC(=O)NC6=O)cc5)C[C@@H]4C3)CC2)nn1 (single isomer, unassigned) [P-281]
1.0 | 3.4 | C[C@H](C#N)Nc1cc(-n2ncc3cc(C#N)cnc32)ncc1-n1cc([C@H]2CC[C@H](CCN3CC[C@H](c4ccc([C@@]5(C)CCC(=O)NC5=O)cc4)C[C@H]3C)CC2)nn1 (single isomer, unassigned) [P-282]
6.6 | 8.5 | C[C@H](C#N)Nc1cc(-n2ncc3cc(C#N)cnc32)ncc1-n1cc([C@H]2CC[C@H](CCN3CC[C@H]4[C@@H]3CCN4c3ccc([C@@]4(C)CCC(=O)NC4=O)nc3)CC2)nn1 (single isomer, unassigned) [P-286]
51.0 | 1350 | C[C@H](C#N)Nc1cc(-n2ncc3cc(C#N)cnc32)ncc1-n1cc([C@H]2CC[C@H](CCN3CC[C@H]4[C@@H]3CCN4c3ccc([C@@]4(C)CCC(=O)NC4=O)nc3)CC2)nn1 (single isomer, unassigned) [P-287]
4.7 | 7.1 | C[C@H](C#N)Nc1cc(-n2ncc3cc(C#N)cnc32)ncc1-n1cc([C@H]2CC[C@H](CCN3CC[C@H]4[C@@H]3CCN4c3ccc([C@@]4(C)CCC(=O)NC4=O)nc3)CC2)nn1 (single isomer, unassigned) [P-288]

SMILES | LVL THP1 HTRF YMIN [%] | DC50 [nM]
C[C@H](C#N)Nc1cc(-n2ncc3cc(C#N)cnc32)ncc1-n1cc([C@H]2CC[C@H](CCN3CC[C@@H](c4ccc([C@@]5(C)CCC(=O)NC5=O)cc4)C[C@@H]3C)CC2)nn1 (single isomer, unassigned) [P-283] | 5.2 | 5.7
